Broadly, the melting point is the temperature of the solid-liquid transition.

For `Cc1nccn1-c1nc(-c2ccc(Cl)cc2)c(CCCCn2cncn2)o1` [Example 88, 1-[4-[4-(4-chlorophenyl)-2-(2-methyl-1-imidazolyl)-5-oxazolyl]butyl]1,2,4-triazole], the melting point fell in the range of 74 to 75 °C. With `CCCc1nccn1-c1nc(-c2ccc(Cl)cc2)c(CCC(=O)O)o1` [Example 30, 4-(4-chlorophenyl)-2-(2-propyl-1-imidazolyl)-5-oxazolepropionic acid] the figure was 174 to 175 °C; with `CSc1nc(-c2ccc(Cl)cc2)c(CCC(=O)O)o1` [Example 6, 4-(4-chlorophenyl)-2-methylthio-5-oxazolepropionic acid], 183 to 184 °C; with `CCOC(=O)CCc1oc(-n2ccnc2C)nc1-c1ccc(Cl)cc1` [Example 52, ethyl 4-(4-chlorophenyl)-2-(2-methyl-1-imidazolyl)-5-oxazolepropionate], 70 to 71 °C. Regarding `CC(C)Sc1nc(-c2ccc(Cl)cc2)c(CCC(=O)O)o1` [Example 7, 4-(4-chlorophenyl)-2-isopropylthio-5-oxazolepropionic acid], the melting point was in the range of 132 to 133 °C.

As for `OCCCc1oc(-n2ccnc2)nc1-c1ccc(Cl)cc1` [Example 57, 4-(4-chlorophenyl)-2-(1-imidazolyl)-5-oxazolepropanol], the melting point fell in the range of 114 to 115 °C. The figure for `O=C(O)CCc1oc(Cl)nc1-c1ccc(Cl)cc1` [Example 2, 2-chloro-4-(4-chlorophenyl)-5-oxazolepropionic acid] is 169 to 170 °C; for `Cc1nccn1-c1nc(-c2ccc(Cl)cc2)c(CCCOS(C)(=O)=O)o1` [Example 71, 3-[4-(4-chlorophenyl)-2-(2-methyl-1-imidazolyl)-5-oxazolyl]propyl methanesulfonate] it is 97 to 98 °C; for `O=C(O)CCc1oc(SCc2ccccn2)nc1-c1ccc(Cl)cc1` [Example 8, 4-(4-chlorophenyl)-2-(2-pyridylmethylthio)-5-oxazolepropionic acid] it is 125 to 126 °C.

Take `O=C(O)CCc1oc(Oc2ccccc2)nc1-c1ccc(Cl)cc1` [Example 5, 4-(4-chlorophenyl)-2-phenoxy-5-oxazolepropionic acid]: the melting point lay in the range of 136 to 137 °C. With `O=C(O)CCc1oc(-n2ccnc2)nc1-c1ccc(Cl)cc1` [Example 24, 4-(4-chlorophenyl)-2-(1-imidazolyl)-5-oxazolepropionic acid], the melting point fell in the range of 194 to 195 °C.

Turning to `Cc1nccn1-c1nc(-c2ccc(Cl)cc2)c(CCCC2=NCCO2)o1` [Example 67, 4-(4-chlorophenyl)-2-(2-methyl-1-imidazolyl)-5-[3-(2-oxazolin-2-yl)propyl]oxazole], the melting point fell in the range of 88 to 89 °C.

Compound `COC(=O)CCc1oc(Cl)nc1-c1ccc(Cl)cc1` [Example 1, methyl 2-chloro-4-(4-chlorophenyl)-5-oxazolepropionate] returned a melting point of 71 to 72 °C. The figure for `CCOc1nc(-c2ccc(Cl)cc2)c(CCC(=O)O)o1` [Example 3, 4-(4-chlorophenyl)-2-ethoxy-5-oxazolepropionic acid] is 148 to 149 °C; for `Cc1nccn1-c1nc(-c2ccc(Cl)cc2)c(CCC(=O)NCCCl)o1` it is 155 to 156 °C; for `Cc1ccc(Sc2nc(-c3ccc(Cl)cc3)c(CCC(=O)O)o2)cc1` [Example 11, 4-(4-chlorophenyl)-2-(4-methylphenylthio)-5-oxazolepropionic acid] it is 160 to 161 °C. With `Cc1nccn1-c1nc(-c2ccc(Cl)cc2)c(CCC=O)o1` [Example 69, 4-(4-chlorophenyl)-2-(2-methyl-1-imidazolyl)-5-oxazolepropionaldehyde] the figure was 109 to 110 °C. With `O=C(O)CCCc1oc(Cl)nc1-c1ccc(Cl)cc1` [Example 62, 2-chloro-4-(4-chlorophenyl)-5-oxazolebutyric acid] the figure was 211 to 212 °C; with `Cc1nccn1-c1nc(-c2ccc(Cl)cc2)c(CCCCCn2ccnc2)o1.Cl.Cl.O` (hydrate or solvate), 197 to 199 °C; with `Cc1nccn1-c1nc(-c2ccc(Cl)cc2)c(CCC(N)=O)o1` [Example 41, 4-(4-chlorophenyl)-2-(2-methyl-1-imidazolyl)-5-oxazolepropionamide], 215 to 216 °C. `Cc1nccn1-c1nc(-c2ccc(Cl)cc2)c(CCO)o1` [Example 78, 4-(4-chlorophenyl)-2-(2-methyl-1-imidazolyl)-5-oxazolethanol] came in with a melting point of 159 to 160 °C. With `Cc1nccn1-c1nc(-c2ccc(Cl)cc2)c(CCCCCCO)o1` [Example 84, 4-(4-chlorophenyl)-2-(2-methyl-1-imidazolyl)-5-oxazolehexanol] the figure was 70 to 71 °C.

Regarding `CCOC(=O)c1nccn1CCCCc1oc(-n2ccnc2C)nc1-c1ccc(Cl)cc1` [Example 92, ethyl 1-[4-[4-(4-chlorophenyl)-2-(2-methyl-1-imidazolyl)-5-oxazolyl]butyl]-2-imidazolecarboxylate], the melting point is 134 to 135 °C. With `O=C(O)CCc1oc(SCc2cccnc2)nc1-c1ccc(Cl)cc1` [Example 9, 4-(4-chlorophenyl)-2-(3-pyridylmethylthio)-5-oxazolepropionic acid] the figure was 129 to 130 °C; with `Cc1nccn1-c1nc(-c2ccc(Cl)cc2)c(CCCC(=O)NCCCl)o1`, 131 to 132 °C.

Regarding `O=C(O)CCc1oc(Sc2ccccc2)nc1-c1ccc(Cl)cc1` [Example 10, 4-(4-chlorophenyl)-2-phenylthio-5-oxazolepropionic acid], the melting point lay in the range of 156 to 157 °C. `Cc1nccn1-c1nc(-c2ccc(Cl)cc2)c(CCC2NCCS2)o1` (stereo not drawn) [Example 70, 2-[2-[4-(4-chlorophenyl)-2-(2-methyl-1-imidazolyl)-5-oxazolyl]ethyl]thiazolidine] returned a melting point of 110 to 111 °C. The figure for `CON(C)C(=O)CCc1oc(-n2ccnc2C)nc1-c1ccc(Cl)cc1` [Example 68, N-methoxy-N-methyl-4-(4-chlorophenyl)-2-(2-methyl-1-imidazolyl)-5-oxazolepropionamide] is 116 to 117 °C. The figure for `CCOC(=O)CCCCc1oc(-n2ccnc2C)nc1-c1ccc(Cl)cc1` [Example 81, ethyl 4-(4-chlorophenyl)-2-(2-methyl-1-imidazolyl)-5-oxazolepentanoate] is 93 to 94 °C; for `CC(C)Oc1nc(-c2ccc(Cl)cc2)c(CCC(=O)O)o1` [Example 4, 4-(4-chlorophenyl)-2-isopropoxy-5-oxazolepropionic acid] it is 116 to 117 °C.

On to `O=C(O)CCc1oc(N2CCOCC2)nc1-c1ccc(Cl)cc1` [Example 18, 4-(4-chlorophenyl)-2-morpholino-5-oxazolepropionic acid], for which the melting point is 180 to 181 °C. On to `CCOC(=O)CCCc1oc(-n2ccnc2C)nc1-c1ccc(Cl)cc1` [Example 64, ethyl 4-(4-chlorophenyl)-2-(2-methyl-1-imidazolyl)-5-oxazolebutyrate], for which the melting point fell in the range of 72 to 73 °C.

Compound `Cc1nccn1-c1nc(-c2ccc(Cl)cc2)c(CCC2=NCCO2)o1` [Example 46, 4-(4-chlorophenyl)-2-(2-methyl-1-imidazolyl)-5-[2-(2-oxazolin-2-yl)ethyl]oxazole] yielded a melting point of 119 to 120 °C.

The values are drawn from patent US6498179B1, “Oxazole derivatives, their production and use” (Takeda Chemical Industries, Ltd., priority 1996, dated 2002).
